One assay concerns the target T1, PD-1/PD-L1 (Homo sapiens, UniProt Q9NZQ7).
T1 construct: purchased Cisbio 63ADK000CPDPEB
Put plainly: PD-1/PD-L1 binding assay (HTRF, PPI-HTRF). The following applies: HTRF PD1/PD-L1 binding assay kit; 10 nM Tag1-PD-L1; 25° C. Here is the method: Assay 1 PD-1/PD-L1 Binding Assay
DMSO is from Sigma, Cat No: D5879; 384-well small volume plate (white) is from Greiner, Cat No: 784075; Anti-PD1 blocking antibody (IC50: 10 nM) is from Cisbio, Cat No: 64CUS000C-1a; Anti-PDL1 blocking antibody (IC50: 0.3 nM) is from Cisbio, Cat No: 64CUS000C-1b; HTRF PD1/PD-L1 binding assay kit is from Cisbio, Cat No: 63ADK000CPDPEB.
1. Prepare the compound to be tested at 2x concentration into 1× reaction buffer containing 4% DMSO;
2. Tag1-PD-L1 protein and Tag2-PD1 protein were prepared in 1× reaction buffer at concentrations of […] and 10 nM, respectively. The final reaction concentration of the experiment was 10 nM Tag1-PD-L1 and 2 nM […];
3. anti-Tag1-Eu3+ antibody is prepared in 1x concentration detection buffer at a ratio of 1:100;
4. anti-Tag2-XL665 antibody is prepared in 1x concentration detection buffer at a ratio of 1:25; Experimental steps
1. 5 μL of compounds to be tested (2×) was added;
2. 2.5 ul Tag1-PD-L1 protein and 2.5 ul Tag2-PD1 protein were added respectively, and the total reaction system is 10 ul, and reacted at 25° C. for 15 minutes;
3. 5 ul anti-Tag1-Eu3+ antibody and 5 ul anti-Tag2-XL665 antibody were added respectively, and reacted at 25° C. for 16 hours;
4. The fluorescence microplate reader HTRF reading program was used to read two readings at 665 nm and 620 nm, the ratio of the two wavelengths was used to judge the activity of the compound, and the IC50 of the compound to be tested is calculated by XLFIT5.0 (IDBS).

Assay [1] has as its system Jurkat T(PD1 Luc-)/CHOK1(PDL-1). Put plainly: Jurkat T(PD1 Luc-)/CHOK1(PDL-1) cell experiment (luciferase reporter). It counts as cell-based. The conditions noted are these: CHO/PD-L1-OKT3 cells co-cultured with Jurkat/PD1-NFAT-Luc cells for 6 hours; Bio-Glo luciferase signal. As to the method: Assay 2 Jurkat T(PD1 Luc-)/CHOK1(PDL-1) Cell Experiment
G418, Sangon Biotech #A100859-0001, Cat Number G108BA0003, 5 ml of deionized water being added into each bottle, store at 4° C.
CHO/PD-L1-OKT3 cells (constructed by referring to Promega's PD-1/PD-L1 Blockade Bioassays system) cultured in F-12K medium (containing 10% FBS, 800 ug/ml G418, 400 ug/ml D Hygromycin B) were planted into a 96-well plate at 2×10^4 per well, and incubated for 24 hours at 37° C. and 5% CO2. part of the medium was removed, and the test compound dissolved in DMSO with a final concentration of 1 uM was added, and DMSO at the same concentration was added into the control cells. Jurkat/PD1-NFAT-Luc cells (constructed by referring to Promega's PD-1/PD-L1 Blockade Bioassays system) were added at 5×10^5 per well at the same time, and cultured for 6 hours. The corresponding luciferase signal was detected by Bio-Glo™ (Promega, G7940) reagent. The EC50 of each compound to be tested was calculated through the non-linear regression of XLfit software.
Background: A reporter such as luciferase makes a cellular process visible.

T1 sequence (Q9NZQ7 19-238 limits assumed): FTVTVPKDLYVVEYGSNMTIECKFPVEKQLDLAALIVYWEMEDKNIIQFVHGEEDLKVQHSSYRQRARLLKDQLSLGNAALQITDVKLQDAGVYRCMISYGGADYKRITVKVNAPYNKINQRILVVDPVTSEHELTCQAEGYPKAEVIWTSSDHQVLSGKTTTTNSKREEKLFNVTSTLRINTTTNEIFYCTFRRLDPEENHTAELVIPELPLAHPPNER

Broadly, the IC50 is the concentration at which inhibition is half-maximal. Read a high IC50 as weaker potency. Usually EC50 stands for the midpoint of the concentration-response curve. High values mean lower potency in that assay, low ones higher potency in that assay. `Cc1cc(/C=C/c2nccc(-c3cccc(NC(=O)c4ccc(CNCCO)cn4)c3C)c2C#N)c(Cl)cc1CNCCO` [Z-1, (E)-N-(3-(2-(2-chloro-4-(((2-hydroxyethyl)amino)methyl)-5-methylstyryl)-3-cyanopyridin-4-yl)-2-methylphenyl)-5-(((2-hydroxyethyl)amino)methyl)picolinamide]: on PD-1/PD-L1, the IC50 is 1 nM. This compound also had an EC50 in assay [1] of 162 nM.
The like results for `Cc1cc(/C=C/c2nccc(-c3cccc(NC(=O)c4ccc(CNCCO)cn4)c3C)c2C#N)c(Cl)cc1CN1CCCC[C@H]1C(=O)O` [Z-2, (S, E)-1-(5-chloro-4-(2-(3-cyano-4-(3-(5-(((2-hydroxyethyl)amino)methyl)picolinamido)-2-methylphenyl)pyridin-2-yl)vinyl)-2-methylbenzyl)piperidine-2-carboxylic Acid] were, in that order, 1 nM and 79 nM.
At PD-1/PD-L1, `COc1cc(/C=C/c2cccc(-c3cccc(Nc4nccc5cc(CN6CC[C@@H](O)C6)cnc45)c3C)c2C)c(C(F)(F)F)cc1CN1CC[C@@H](C(=O)O)C1` [Z-8] showed an IC50 of 2 nM. This compound also yielded an EC50 in assay [1] of 47 nM.
The like results for `Cc1cc(/C=C/c2cccc(-c3cccc(Nc4nccc5cc(CN6CC[C@@H](O)C6)cnc45)c3C)c2C)c(C(F)(F)F)cc1CN1CC[C@@H](C(=O)O)C1` [Z-9] were, in that order, 1 nM and 48 nM.
Taken in the same sequence, the figures for `COc1cc(/C=C/c2cccc(-c3cccc(Nc4nccc5cc(CN6CC[C@@H](O)C6)cnc45)c3C)c2C)c(C(F)(F)F)cc1CN1CCC[C@H]1C(=O)O` [Z-11] were 1 nM and 137 nM.
The like results for `COc1cc(/C=C/c2ccnc(-c3cccc(Nc4nccc5cc(CN6CC[C@@H](O)C6)cnc45)c3C)c2Cl)c(C(F)(F)F)cc1CN1CC[C@@H](C(=O)O)C1` [Z-12] were, in that order, 1 nM and 153 nM.
Take `COc1cc(/C=C/c2ccnc(-c3cccc(Nc4nccc5cc(CN6CC[C@@H](O)C6)cnc45)c3C)c2C#N)c(C(F)(F)F)cc1CN1CC[C@@H](C(=O)O)C1` [Z-14]: on PD-1/PD-L1, the IC50 was less than 1 nM. Also, the EC50 in assay [1] was determined as 208 nM.
On PD-1/PD-L1, `Cc1cc(/C=C/c2cccc(-c3cccc(-c4nc5cc(CN6CC[C@@H](C(=O)O)C6)cc(C#N)c5o4)c3C)c2C)c(C(F)(F)F)cc1CN1CC[C@@H](O)C1` [Z-18, (R)-1-((7-cyano-2-(3′-((E)-4-(((R)-3-hydroxypyrrolidin-1-yl)methyl)-5-methyl-2-(trifluoromethyl)styryl)-2,2′-dimethyl-[1,1′-biphenyl]-3-yl)benzo[d]oxazol-5-yl)methyl)pyrrolidine-3-carboxylic Acid] had an IC50 of 1 nM. In assay [1], a half-maximal response (EC50) required 142 nM.
The like results for `COc1cc(/C=C/c2cccc(-c3cccc(-c4nc5cc(CN6CC[C@@H](C(=O)O)C6)cc(C#N)c5o4)c3C)c2C)c(C(F)(F)F)cc1CN1CC[C@@H](O)C1` [Z-21, (R)-1-((7-cyano-2-(3′-((E)-4-(((R)-3-hydroxypyrrolidin-1-yl)methyl)-5-methoxy-2-(trifluoromethyl)styryl)-2,2′-dimethyl-[1,1′-biphenyl]-3-yl)benzo[d]oxazol-5-yl)methyl) pyrrolidine-3-carboxylic Acid] were, in that order, 1 nM and 5 nM.
Taken in the same sequence, the figures for `COc1cc(/C=C/c2cccc(-c3cccc(-c4nc5cc(CN6CC[C@@H](O)C6)cc(C#N)c5o4)c3C)c2C)c(C(F)(F)F)cc1CN1CCCC[C@H]1C(=O)O` [Z-26] were 4 nM and 39 nM.
In the case of `COc1cc(/C=C/c2cccc(-c3cccc(-c4nc5cc(CN6CC[C@@H](C(=O)O)C6)cc(C(N)=O)c5o4)c3C)c2C)c(C(F)(F)F)cc1CN1CC[C@@H](O)C1` [Z-27, (R)-1-((7-carbamoyl-2-(3′-((E)-4-(((R)-3-hydroxypyrrolidin-1-yl)methyl)-5-methoxy-2-(trifluoromethyl)styryl)-2,2′-dimethyl-[1,1′-biphenyl]-3-yl)benzo[d]oxazol-5-yl)methyl)pyrrolidine-3-carboxylic Acid], the IC50 at PD-1/PD-L1 amounted to 1 nM. The compound also yielded an EC50 in assay [1] of 176 nM.
The like results for `COc1cc(/C=C/c2cccc(-c3cccc(-c4nc5cc(CN6CC[C@@H](C(=O)O)C6)cc(C#N)c5o4)c3C)c2C)c(C(F)(F)F)cc1CN1CC[C@H](O)C1` [Z-29] were, in that order, 2 nM and 109 nM.
For `COc1cc(/C=C/c2cccc(-c3cccc(-c4nc5cc(CN6CC[C@H](C(=O)O)C6)cc(C#N)c5o4)c3C)c2C)c(C(F)(F)F)cc1CN1CC[C@H](O)C1` [Z-30], at PD-1/PD-L1, the IC50 is 2 nM. In assay [1], this compound had an EC50 of 104 nM.
Taken in the same sequence, the figures for `COc1cc(/C=C/c2cccc(-c3cccc(-c4nc5cc(CN6CC[C@@H](C(=O)O)C6)cc(C#N)c5o4)c3C)c2C)c(C(F)(F)F)cc1CNCCO` [Z-33] were 1 nM and 74 nM.
Taken in the same sequence, the figures for `COc1cc(/C=C/c2cccc(-c3cccc(-c4nc5cc(CN6CC[C@@H](C(=O)O)C6)cc(C#N)c5o4)c3C)c2C)c(C(F)(F)F)cc1CN[C@@H](C)CO` [Z-34, (R)-1-((7-cyano-2-(3′-((E)-4-((((S)-1-hydroxypropan-2-yl)amino)methyl)-5-methoxy-2-(trifluoromethyl)styryl)-2,2′-dimethyl-[1,1′-biphenyl]-3-yl)benzo[d]oxazol-5-yl)methyl)pyrrolidine-3-carboxylic Acid] were 2 nM and 79 nM.
The compound `COc1cc(/C=C/c2cccc(-c3cccc(-c4nc5cc(CN6CC[C@H](C(=O)O)C6)cc(C#N)c5o4)c3C)c2C)c(C(F)(F)F)cc1CN1CC[C@@H](O)C1` [Z-35] yielded an IC50 at PD-1/PD-L1 of 2 nM. In assay [1], this compound had an EC50 of 29 nM.
Compound `CCOC(=O)[C@@H]1CCN(Cc2cc(C#N)c3oc(-c4cccc(-c5cccc(/C=C/c6cc(OC)c(CN7CC[C@@H](O)C7)cc6C(F)(F)F)c5C)c4C)nc3c2)C1` [Z-45] returned an EC50 in assay [1] of 70 nM.
The same measure, in the same setting: then `Cc1cc(/C=C/c2nccc(-c3cccc(-c4nc5cc(CN6CCC(C(=O)O)C6)cc(Cl)c5o4)c3C)c2C#N)c(C(F)(F)F)cc1CN1CC[C@@H](O)C1` (some centres unmarked) [Z-48], with 70 nM; and `COc1cc(/C=C/c2cccc(-c3cccc(-c4cnc(CNC[C@@H]5CCC(=O)N5)c(OC)n4)c3Cl)c2C)c(C(F)(F)F)cc1CN1CC[C@@H](C(=O)O)C1` [Z-58], with 78 nM.
Regarding `COc1cc(/C=C/c2cccc(-c3cccc(NC(=O)c4nc5c(n4C)CCN(C)C5)c3C)c2C)c(C(F)(F)F)cc1CN1CC[C@@H](C(=O)O)C1` [Z-126, (R,E)-1-(4-(2-(3′-(1,5-dimethyl-4,5,6,7-tetrahydro-1H-imidazo[4,5-c]pyridine-2-carboxamido)-2,2′-dimethyl-[1,1′-biphenyl]-3-yl)vinyl)-2-methoxy-5-(trifluoromethyl)benzyl)pyrrolidine-3-carboxylic Acid], the IC50 on PD-1/PD-L1 came to 1 nM.
Still for that read-out and setting: next, `COc1cc(C(=O)Nc2cccc(-c3cccc(/C=C/c4cc(C)c(CN5CC[C@@H](C(=O)O)C5)cc4C(F)(F)F)c3C)c2C)ncc1CN1CC[C@@H](O)C1` [Z-127]: 1 nM; `COc1cc(/C=C/c2cccc(-c3cccc(NC(=O)c4cn5c(n4)CN(C)CC5)c3C)c2C)c(C(F)(F)F)cc1CN1CCC(C(=O)O)C1` (centres unmarked) [Z-129, (E)-1-(4-(2-(2,2′-dimethyl-3′-(7-methyl-5,6,7,8-tetrahydroimidazo[1,2-a]pyrazine-2-carboxamido)-[1,1′-biphenyl]-3-yl)vinyl)-2-methoxy-5-(trifluoromethyl)benzyl)pyrrolidine-3-carboxylic Acid]: 1 nM.
Same read-out and setting: next, `COc1cc(/C=C/c2cccc(-c3cccc(NC(=O)c4cc(OC)c(CN5CC[C@@H](O)C5)cn4)c3C)c2C)c(C(F)(F)F)cc1CN1CC(C(=O)O)C1` [Z-130]: 1 nM; `COc1cc(/C=C/c2cccc(-c3cccc(NC(=O)c4cc(OC)c(CN5CC[C@@H](C(=O)O)C5)cn4)c3C)c2C)c(C(F)(F)F)cc1CN1CC[C@@H](O)C1` [Z-136]: 5 nM.
As to `COc1cc(/C=C/c2cccc(-c3cccc(NC(=O)c4cc(OC)c(CN5CC[C@@H](O)C5)cn4)c3C)c2C)c(C(F)(F)F)cc1CN1CCC(C(=O)NS(C)(=O)=O)C1` (some centres unmarked) [Z-139], in assay [1], it took 7 nM to reach a half-maximal effect (EC50).

Values taken from US20210386721A1, “SUBSTITUTED PHENYLPROPENYL PYRIDINE DERIVATIVES, THEIR PREPARATION AND PHARMACEUTICAL APPLICATIONS” (SHANGHAI HAIYAN PHARMACEUTICAL TECHNOLOGY CO., LTD., priority 2019, published 2021).
